Reference: patent US9399635B2, “Pyrazole derivative” (GREEN TECH CO., LTD., priority 2011, dated 2016)

Row | SMILES | melting point [°C]
1 | C(=C\c1cc(/C=C/c2ccc3[nH]ccc3c2)[nH]n1)/c1ccc(OCc2ccccn2)cc1 [Example 4, 3-[(1E)-2-(1H-indol-5-yl)ethenyl]-5-[(1E)-2-[4-(2-pyridylmethoxy)phenyl]ethenyl]-1H-pyrazole] | 95 to 102
2 | COc1cc(/C=C/c2cc(/C=C/c3ccc4[nH]ccc4c3)[nH]n2)ccc1OCc1ccccn1 [Example 5, 3-[(1E)-2-(1H-indol-5-yl)ethenyl]-5-[(1E)-2-[3-methoxy-4-(2-pyridylmethoxy)phenyl]ethenyl]-1H-pyrazole] | 96 to 101
3 | COc1ccc(/C=C/c2cc(/C=C/c3ccc4[nH]ccc4c3)[nH]n2)cc1OCc1ccccn1 [Example 6, 3-[(1E)-2-(1H-indol-5-yl)ethenyl]-5-[(1E)-2-[4-methoxy-3-(2-pyridylmethoxy)phenyl]ethenyl]-1H-pyrazole] | 109 to 118
4 | C(=C\c1cc(/C=C/c2ccc3[nH]ccc3c2)[nH]n1)/c1cccc(OCc2ccccn2)c1 [Example 7, 3-[(1E)-2-(1H-indol-5-yl)ethenyl]-5-[(1E)-2-[3-(2-pyridylmethoxy)phenyl]ethenyl]-1H-pyrazole] | 183 to 186
5 | C(=C\c1cc(/C=C/c2c[nH]c3ccccc23)[nH]n1)/c1ccc(OCc2ccccn2)cc1 [Example 10, 3-[(1E)-2-(1H-indol-3-yl)ethenyl]-5-[(1E)-2-[4-(2-pyridylmethoxy)phenyl]ethenyl]-1H-pyrazole] | 196 to 199
6 | COc1cc(/C=C/c2cc(/C=C/c3c[nH]c4ccccc34)[nH]n2)ccc1OCc1ccccn1 [Example 11, 3-[(1E)-2-(1H-indol-3-yl)ethenyl]-5-[(1E)-2-[3-methoxy-4-(2-pyridylmethoxy)phenyl]ethenyl]-1H-pyrazole] | 120 to 130
7 | COc1ccc(/C=C/c2cc(/C=C/c3c[nH]c4ccccc34)[nH]n2)cc1OCc1ccccn1 [Example 12, 3-[(1E)-2-(1H-indol-3-yl)ethenyl]-5-[(1E)-2-[4-methoxy-3-(2-pyridylmethoxy)phenyl]ethenyl]-1H-pyrazole] | 232 to 243
8 | C(=C\c1cc(/C=C/c2c[nH]c3ccccc23)[nH]n1)/c1cccc(OCc2ccccn2)c1 [Example 13, 3-[(1E)-2-(1H-indol-3-yl)ethenyl]-5-[(1E)-2-[3-(2-pyridylmethoxy)phenyl]ethenyl]-1H-pyrazole] | 198 to 201
9 | C(=C\c1cc(/C=C/c2ccc3cc[nH]c3c2)[nH]n1)/c1ccc(OCc2ccccn2)cc1 [Example 16, 3-[(1E)-2-(1H-indol-6-yl)ethenyl]-5-[(1E)-2-[4-(2-pyridylmethoxy)phenyl]ethenyl]-1H-pyrazole] | 211 to 214
10 | COc1cc(/C=C/c2cc(/C=C/c3ccc4cc[nH]c4c3)[nH]n2)ccc1OCc1ccccn1 [Example 17, 3-[(1E)-2-(1H-indol-6-yl)ethenyl]-5-[(1E)-2-[3-methoxy-4-(2-pyridylmethoxy)phenyl]ethenyl]-1H-pyrazole] | 236 to 243
11 | COc1ccc(/C=C/c2cc(/C=C/c3ccc4cc[nH]c4c3)[nH]n2)cc1OCc1ccccn1 [Example 18, 3-[(1E)-2-(1H-indol-6-yl)ethenyl]-5-[(1E)-2-[4-methoxy-3-(2-pyridylmethoxy)phenyl]ethenyl]-1H-pyrazole] | 110 to 117
12 | C(=C\c1cc(/C=C/c2ccc3cc[nH]c3c2)[nH]n1)/c1cccc(OCc2ccccn2)c1 [Example 19, 3-[(1E)-2-(1H-indol-6-yl)ethenyl]-5-[(1E)-2-[3-(2-pyridylmethoxy)phenyl]ethenyl]-1H-pyrazole] | 193 to 195
13 | COc1c(/C=C/c2cc(/C=C/c3ccc4cc[nH]c4c3)[nH]n2)cccc1OCc1ccccn1 [Example 22, 3-[(1E)-2-(1H-indol-6-yl)ethenyl]-5-[(1E)-2-[2-methoxy-3-(2-pyridylmethoxy)phenyl]ethenyl]-1H -pyrazole] | 109 to 114
14 | COc1cc(/C=C/c2cc(/C=C/c3ccc4cc[nH]c4c3)[nH]n2)cc(OCc2ccccn2)c1 [Example 25, 3-[(1E)-2-(1H-indol-6-yl)ethenyl]-5-[(1E)-2-[3-methoxy-5-(2-pyridylmethoxy)phenyl]ethenyl]-1H-pyrazole] | 88 to 93
15 | COc1cc(OCCN2CCCCC2)ccc1/C=C/c1cc(/C=C/c2ccc3cc[nH]c3c2)[nH]n1 [Example 26, 3-[(1E)-2-(1H-indol-6-yl)ethenyl]-5-[(1E)-2-[2-methoxy-4-(2-piperidinoethoxy)phenyl]ethenyl]-1H-pyrazole] | 150 to 155
16 | COc1cc(OCCN2CCN(C)CC2)ccc1/C=C/c1cc(/C=C/c2ccc3cc[nH]c3c2)[nH]n1 [Example 28, 3-[(1E)-2-(1H-indol-6-yl)ethenyl]-5-[(1E)-2-[2-methoxy-4-[2-(4-methylpiperazino)ethoxy]phenyl]ethenyl]-1H-pyrazole] | 134 to 142
17 | COc1cc(O[C@@H]2O[C@H](CO)[C@@H](O)[C@H](O)[C@H]2O)ccc1/C=C/c1cc(/C=C/c2ccc3cc[nH]c3c2)[nH]n1 [Example 29, 3-[(1E)-2-(1H-indol-6-yl)ethenyl]-5-[(1E)-2-[4-[(β-D-glucopyranosyl)oxy]-2-methoxyphenyl]ethenyl]-1H-pyrazole] | 194 to 199
18 | COc1cc(OCc2ccccn2)ccc1/C=C/c1cc(/C=C/c2ccc3[nH]nnc3c2)[nH]n1 [Example 30, 3-[(1E)-2-(1H-benzotriazol-5-yl)ethenyl]-5-[(1E)-2-[2-methoxy-4-(2-pyridylmethoxy)phenyl]ethenyl]-1H-pyrazole] | 113 to 120
19 | COc1cc(OCc2ccccn2)ccc1/C=C/c1cc(/C=C/c2ccc3nccnc3c2)[nH]n1 [Example 32, 3-[(1E)-2-[2-methoxy-4-(2-pyridylmethoxy)phenyl]ethenyl]-5-[(1E)-2-(quinoxalin-6-yl)ethenyl]-1H-pyrazole] | 205 to 213
20 | COc1cc(OCc2ccccn2)ccc1/C=C/c1cc(/C=C/c2cc3ccccc3o2)[nH]n1 [Example 33, 3-[(1E)-2-(benzofuran-2-yl)ethenyl]-5-[(1E)-2-[2-methoxy-4-(2-pyridylmethoxy)phenyl]ethenyl]-1H-pyrazole] | 199.4 to 200.9
21 | COc1cc(OCc2ccccn2)ccc1/C=C/c1cc(/C=C/c2cc3ccccc3s2)[nH]n1 [Example 34, 3-[(1E)-2-(benzothiophen-2-yl)ethenyl]-5-[(1E)-2-[2-methoxy-4-(2-pyridylmethoxy)phenyl]ethenyl]-1H-pyrazole] | 231.1 to 232.1
22 | COc1cc(OCc2ccccn2)ccc1/C=C/c1cc(/C=C/c2c[nH]c3ccccc23)[nH]n1 [Example 38, 3-[(1E)-2-(1H-indol-3-yl)ethenyl]-5-[(1E)-2-[2-methoxy-4-(2-pyridylmethoxy)phenyl]ethenyl]-1H-pyrazole] | 112 to 116
23 | COc1cc(OCc2ccccn2)ccc1/C=C/c1cc(/C=C/c2cccc3[nH]ccc23)[nH]n1 [Example 39, 3-[(1E)-2-(1H-indol-4-yl)ethenyl]-5-[(1E)-2-[2-methoxy-4-(2-pyridylmethoxy)phenyl]ethenyl]-1H-pyrazole] | 108 to 113
24 | COc1cc(OCc2ccccn2)ccc1/C=C/c1cc(/C=C/c2ccc3[nH]ccc3c2)[nH]n1 [Example 40, 3-[(1E)-2-(1H-indol-5-yl)ethenyl]-5-[(1E)-2-[2-methoxy-4-(2-pyridylmethoxy)phenyl]ethenyl]-1H-pyrazole] | 98 to 104
